Test results reported in patent US9079913B2, “Spiro-oxindole MDM2 antagonists” (The Regents of the University of Michigan, priority 2009, dated 2015).
Like-named read-outs stand apart in the source and are kept apart here.

Columns and labels:
[1] = system: cancer cell lines with wild-type p53 / mutated or deleted p53 (ATCC); assay: Cell growth assay (WST-8), other cancer cell lines; assay type: cell-based
[2] = system: Isogenic HCT-116 colon cancer cell lines; assay: cells; assay type: cell-based;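 further: cells grown in 96-well plates in McCoy's 5A medium with 10% FBS, exposed to compound for 4 days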
Description: Cells were seeded in 96-well flat bottom cell culture plates at a density of 2−3×10^3 cells/well with compounds and incubated for 4 days.

[3] = biological target: recombinant human His-tagged MDM2 protein (residues 1-118) (Homo sapiens (Human), UniProt Q00987); assay: Fluorescence-polarization MDM2 binding assay;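 further: fluorescence polarization read after three hours of incubation in potassium phosphate buffer containing bovine gamma globulin and Triton X-100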
[4] = Homo sapiens, LNCaP, Table 19D, LNCaP cells, read-out: LNCaP IC50
[5] = Homo sapiens, PC-3, Table 19D, PC3 cells, read-out: PC3 IC50
[6] = Homo sapiens, HCT-116, read-out: HCT116p53KO IC50, Table 19D, HCT116 p53KO
[7] = Homo sapiens, HCT-116, read-out: HCT116p53WT IC50, Table 19D, HCT116 p53WT
[8] = Table 19D, read-out: MDM2 Binding Affinities IC50
[9] = Homo sapiens, LNCaP, Table 19A, LNCAP cells, p53 wild-type, cell growth, read-out: LNCAP (p53 wild-type) IC50
[10] = Homo sapiens, PC-3, Table 19A, PC-3 cells, deleted p53, cell growth, read-out: PC-3 (deleted p53) IC50
[11] = Homo sapiens, HCT-116, read-out: HCT-116 (p53-/-) IC50, Table 19A, HCT-116 p53-/-, cell growth
[12] = Homo sapiens, HCT-116, read-out: HCT-116 (p53 wild-type) IC50, Table 19A, HCT-116 p53 wild-type, cell growth
[13] = Table 19A, FP binding assay, read-out: MDM2 IC50
[14] = Homo sapiens, Table 19D, SJSA-1 cells, unit inferred, read-out: SJSA-1

Sequence of recombinant human His-tagged MDM2 protein (residues 1-118) (Q00987 1-118): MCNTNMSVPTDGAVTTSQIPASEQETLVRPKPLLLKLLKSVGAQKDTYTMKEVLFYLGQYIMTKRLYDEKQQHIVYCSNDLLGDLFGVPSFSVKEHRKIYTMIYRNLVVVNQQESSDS

| SMILES | IC50 [1, 4] [µM] | IC50 [1, 5] [µM] | IC50 [2, 6] [µM] | IC50 [2, 7] [µM] | IC50 [3, 8] [µM] | also measured |
| --- | --- | --- | --- | --- | --- | --- |
| CC(C)(C)C[C@H]1N[C@@H](C(=O)NCC[C@H](O)CO)[C@H](c2cccc(F)c2)[C@@]12C(=O)Nc1cc(F)c(F)cc12 [MI-519-11] | > 5 | > 10 | > 10 | > 5 | > 5 | – |
| CC(C)(C)C[C@H]1N[C@@H](C(=O)NCC[C@H](O)CO)[C@H](c2ccc(F)c(F)c2)[C@@]12C(=O)Nc1cc(F)c(F)cc12 [MI-519-12] | < 3 | > 10 | > 10 | < 3 | < 10 | – |
| CC(C)(C)C[C@H]1N[C@@H](C(=O)NCC[C@H](O)CO)[C@H](c2ccc(F)c(Cl)c2)[C@@]12C(=O)Nc1cc(F)ccc12 [MI-519-14] | < 5 | > 10 | > 10 | < 5 | < 1 | – |
| CN1[C@@H](C(=O)NCC[C@H](O)CO)[C@H](c2cccc(Cl)c2)[C@@]2(C(=O)Nc3cc(F)ccc32)[C@H]1CC(C)(C)C [MI-519-15-me] | 6.4 | > 10 | > 10 | 5.2 | < 5 | – |
| CC(C)(C)C[C@H]1N[C@@H](C(=O)NCC[C@H](O)CO)[C@H](c2cccc(Cl)c2)[C@@]12C(=O)Nc1cc(F)ccc12 [MI-519-15] | < 5 | > 10 | > 10 | < 3 | < 1 | – |
| CC(C)(C)C[C@H]1N[C@@H](CO)[C@H](c2cccc(Cl)c2)[C@@]12C(=O)Nc1cc(Cl)c(F)cc12 [MI-519-20] | 2.2 ± 0.2 | 9 ± 1.1 | 13.4 ± 0.8 | 1.9 ± 0.1 | < 5 | – |
| CCCN1CCN(CCNC(=O)[C@@H]2N[C@H](CC(C)(C)C)[C@]3(C(=O)Nc4cc(Cl)c(F)cc43)[C@H]2c2cccc(Cl)c2)CC1 [MI-519-21] | 1.5 ± 0.6 | 4.8 ± 0.4 | 5.8 ± 1.9 | 1.4 ± 0.5 | < 3 | – |
| CC(C)(C)C[C@H]1N[C@@H](C(=O)NCCC2CCC(O)C2)[C@H](c2cccc(Cl)c2)[C@@]12C(=O)Nc1cc(F)c(F)cc12 (some centres unmarked) [MI-519-25] | < 5 | > 10 | > 10 | < 3 | < 3 | – |
| CC(C)(C)C[C@H]1N[C@@H](C(=O)NCCC2CCC(O)C2)[C@H](c2cccc(Cl)c2)[C@@]12C(=O)Nc1cc(F)c(F)cc12 (some centres unmarked) [MI-519-26] | – | – | – | – | < 10 | IC50 ([1]; Table 19D, LNCaP cells, read-out: LNCaP IC50): < 5 µM; IC50 ([1]; Table 19D, PC3 cells, read-out: PC3 IC50): > 10 µM; IC50 ([2]; read-out: HCT116p53KO IC50, Table 19D, HCT116 p53KO): > 10 µM; IC50 ([2]; read-out: HCT116p53WT IC50, Table 19D, HCT116 p53WT): < 5 µM |
| CC(O)C(O)CCNC(=O)[C@@H]1N[C@H](CC(C)(C)C)[C@]2(C(=O)Nc3cc(Cl)c(F)cc32)[C@H]1c1cccc(Cl)c1 (some centres unmarked) [MI-519-30] | – | – | – | – | – | IC50 [1, 9]: 1.1 µM; IC50 [1, 10]: 19.1 ± 2.4 µM; IC50 [2, 11]: 19.6 ± 5.2 µM; IC50 [2, 12]: 1.3 ± 0.3 µM; IC50 [3, 13]: < 2 µM |
| CC(C)(C)C[C@H]1N[C@@H](C(=O)NCCN2CC[C@H](O)C2)[C@H](c2cccc(Cl)c2)[C@@]12C(=O)Nc1cc(Cl)c(F)cc12 [MI-519-35] | – | – | – | – | – | IC50 [1, 9]: 1.4 ± 0.5 µM; IC50 [1, 10]: 6.7 ± 0.9 µM; IC50 [2, 11]: 5.3 ± 0.6 µM; IC50 [2, 12]: 1.8 ± 0.5 µM; IC50 [3, 13]: < 1 µM |
| CC(C)(C)C[C@H]1N[C@@H](C(=O)NCC2CC(O)C(O)C2)[C@H](c2cccc(Cl)c2)[C@@]12C(=O)Nc1cc(Cl)c(F)cc12 (some centres unmarked) [MI-519-36] | – | – | – | – | – | IC50 [1, 9]: 0.9 ± 0.1 µM; IC50 [1, 10]: 20.6 ± 5.3 µM; IC50 [2, 11]: 29.8 ± 6.5 µM; IC50 [2, 12]: 1.2 ± 0.6 µM; IC50 [3, 13]: < 1 µM |
| CC(C)(C)C[C@H]1N[C@@H](C(=O)NCC2CC(O)C(O)C2)[C@H](c2cccc(Cl)c2)[C@@]12C(=O)Nc1cc(Cl)c(F)cc12 (some centres unmarked) [MI-519-37] | – | – | – | – | – | IC50 ([1]; Table 19A, LNCAP cells, p53 wild-type, cell growth, read-out: LNCAP (p53 wild-type) IC50): 0.6 ± 0.1 µM; IC50 ([1]; Table 19A, PC-3 cells, deleted p53, cell growth, read-out: PC-3 (deleted p53) IC50): 14 ± 2.2 µM; IC50 ([2]; read-out: HCT-116 (p53-/-) IC50, Table 19A, HCT-116 p53-/-, cell growth): 14.9 ± 2 µM; IC50 ([2]; read-out: HCT-116 (p53 wild-type) IC50, Table 19A, HCT-116 p53 wild-type, cell growth): 1 ± 0.5 µM; IC50 [3, 13]: < 1 µM |
| CN1CCC(NC(=O)[C@@H]2N[C@H](CC(C)(C)C)[C@]3(C(=O)Nc4cc(Cl)ccc43)[C@H]2c2cccc(Cl)c2F)CC1 [MI-519-52] | < 1 | > 3 | > 5 | < 1 | < 1 | IC50 [1, 14]: < 1 µM |
| CN1CCC(CNC(=O)[C@@H]2N[C@H](CC(C)(C)C)[C@]3(C(=O)Nc4cc(Cl)ccc43)[C@H]2c2cccc(Cl)c2F)CC1 [MI-519-53-1] | < 1 | > 3 | > 3 | < 1 | < 1 | IC50 [1, 14]: < 1 µM |
